The text below walks through data of publication PMC7324419 (Human Cell, 2020).

Assay [1] has as its system A549 cell line (lung carcinoma from human). Format: cell-based. Particulars: read-out: IC50 [µM] against A549.
Assay [2] has as its system HT29 cell line (colorectal adenocarcinoma from human). Format: cell-based. Particulars: read-out: IC50 [µM] against HT29.
For assay [3], the system named is EAhy926 cell line (the human umbilical vein, somatic cell hybrid). Format: cell-based. Particulars: read-out: IC50 [µM] against EA.hy9263.
In assay [4] the target is hyaluronidase from bovine testes Type I-S (Bos taurus, UniProt Q2YDK3). Format: biochemical. Particulars: read-out: IC50 (µM) hyaluronidase inhibition.
hyaluronidase from bovine testes Type I-S, sequence (Q2YDK3 36-553 limits assumed): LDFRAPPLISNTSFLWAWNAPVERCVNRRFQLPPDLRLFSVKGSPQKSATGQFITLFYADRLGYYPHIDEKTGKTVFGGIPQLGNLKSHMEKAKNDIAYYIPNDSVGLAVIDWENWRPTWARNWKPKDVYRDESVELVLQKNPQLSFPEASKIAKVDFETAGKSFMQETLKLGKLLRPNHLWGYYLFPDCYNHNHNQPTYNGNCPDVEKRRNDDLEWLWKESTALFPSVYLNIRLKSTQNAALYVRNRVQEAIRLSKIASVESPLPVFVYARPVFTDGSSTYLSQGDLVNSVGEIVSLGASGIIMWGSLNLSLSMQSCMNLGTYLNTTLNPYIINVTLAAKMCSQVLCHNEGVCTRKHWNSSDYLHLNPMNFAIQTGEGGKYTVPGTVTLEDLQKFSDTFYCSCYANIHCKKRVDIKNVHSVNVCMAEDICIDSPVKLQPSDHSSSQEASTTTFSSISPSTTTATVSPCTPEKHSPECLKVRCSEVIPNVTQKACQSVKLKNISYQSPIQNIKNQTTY

As for `COc1cc([C@@H]2c3cc4c(cc3[C@@H](O[C@@H]3O[C@@H]5CO[C@@H](C)O[C@H]5[C@H](O)[C@H]3O)[C@H]3COC(=O)[C@H]23)OCO4)cc(OC)c1O` [Compound C1, Etoposide], the figures for the IC50 in assay [1], in assay [2] and in assay [3] were 451 µM, 654 µM and 155 µM, respectively.
As to `O=C(NCCCNc1c2c(nc3ccccc13)CCCC2)c1ccccc1F` [Compound 2], the figures for the concentration for half-maximal inhibition (IC50) in assay [1] and in assay [2] were 148 µM and 50.2 µM, respectively.
With `O=C(NCCCNc1c2c(nc3ccccc13)CCCC2)c1cccc(F)c1` [Compound 5], the IC50 in assay [1] turned out to be 118 µM; in assay [2] it was 44 µM.
With `O=C(NCCNc1c2c(nc3ccccc13)CCCC2)c1ccccc1F` [Compound 1], the IC50 in assay [1] is 106 µM; in assay [2], 68.4 µM.
heparin [Compound C3]: in assay [4], the IC50 was determined as 56.4 µM.
Take `O=c1[nH]cc(F)c(=O)[nH]1` [Compound C2, 5-fluorouracil]: the IC50 was above 1800 µM in assay [1], 1630 µM in assay [2] and above 1800 µM in assay [3].
